According to patent US8809290B2 (priority 2002, dated 2014):
No end group written: not given here.

Tests used:
[1] = mouse, in vivo, iv
[2] = system: SP2/0 cells expressing IgNP; design: species or system Balb/c mice; conditions: mouse, in vivo
[3] = system: CD 11b+ APC; format: binding, C57 BL/6 mice
[4] = system: Human THP-1 monocytic cells; format: binding
[5] = system: antibodies against hIgG; design: species or system C57BL/6 mice; conditions: mouse, in vivo, iv
[6] = system: T cell immunity to MHC class I-restricted peptides R10K and SIINFEKL; design: species or system BALB/c mice; C57BL/6 mice; conditions: mouse, in vivo
[7] = system: chemokine gene-expression; design: species or system mice; conditions: mouse, in vivo

Substance | detection of epitope in the blood as function of time post-injection [1] | outcome of tumor-bearing mice [2] | receptor binding on APC (competition with tagged pA:pU) [3] | competition of binding of tagged pA:pU to THP-1 cells [4] | prevention of high zone tolerance (anti-hIgG endpoint titers) [5] | T cell immunity to MHC class I-restricted peptides (IFN-γ, IL-4 SFC/spleen) [6] | chemokine expression in pulmonary tissue [7]
SFERFEIFPKE [HA peptide] | not detected in the periphery |  |  |  |  |  | 
Polyadenylic-Polyuridylic Acid [pA:pU] |  | succumbed to disease | bind to different cellular receptors | able to compete out the binding of tagged pA:pU | largely prevent high zone tolerance | able to promote increased T cell immunity to different MHC class I-restricted peptides | trigger expression of a wide range of chemokines
